Measurements: US7087642B2 (priority 1999, dated 2006)
Like-named read-outs stand apart in the source and are kept apart here.

How the values were obtained:
IMPDH human type II = IMPDH human type II (Homo sapiens, UniProt P12268); experiment: biochemical
human PBMC B cells = experiment: cells; type: cell-based; settings: read-out: B-cells (IC50)
human PBMC T cells = experiment: cells; type: cell-based; settings: read-out: T-cells (IC50)

Row | Structure (SMILES) | Ki (IMPDH human type II; read-out: Ki) [µM] | IC50 (human PBMC B cells; Homo sapiens, 72 h) [µM] | IC50 (human PBMC T cells; Homo sapiens, 72 h) [µM] | IC50 (human PBMC B cells) [µM] | IC50 (human PBMC T cells) [µM] | Ki (IMPDH human type II) [µM]
1 | COc1cc(NC(=O)Nc2cccc(CNC(=O)OC(CCN3CCCCC3)c3ccccc3)c2)ccc1-c1cnco1 (stereo not drawn) [Compound 50] | < 0.01 | > 1 | > 1 | – | – | –
2 | COc1cc(NC(=O)Nc2cccc(CNC(=O)O[C@H](CN3CCOCC3)c3ccccc3)c2)ccc1-c1cnco1 [Compound 51] | < 0.01 | 0.1 to 1 | 0.1 to 1 | – | – | –
3 | COc1cc(NC(=O)Nc2cccc(CNC(=O)O[C@@H](CN3CCOCC3)c3ccccc3)c2)ccc1-c1cnco1 [Compound 52] | < 0.01 | > 1 | > 1 | – | – | –
4 | COc1cc(NC(=O)Nc2cccc(CNC(=O)O[C@@H](CO)CCC#N)c2)ccc1-c1cnco1 [Compound 57] | < 0.01 | 0.1 to 1 | 0.1 to 1 | – | – | –
5 | COc1cc(NC(=O)Nc2cccc(CNC(=O)OCCCOC(C)=O)c2)ccc1-c1cnco1 [Compound 58] | < 0.01 | 0.1 to 1 | 0.1 to 1 | – | – | –
6 | COc1cc(NC(=O)Nc2cccc(CNC(=O)O[C@H](CO)CCC#N)c2)ccc1-c1cnco1 [Compound 59] | < 0.01 | 0.1 to 1 | > 1 | – | – | –
7 | CC[C@H](CO)OC(=O)NCc1cccc(NC(=O)Nc2ccc(-c3cnco3)c(OC)c2)c1 [Compound 60] | < 0.01 | 0.1 to 1 | 0.1 to 1 | – | – | –
8 | CC[C@@H](CO)OC(=O)NCc1cccc(NC(=O)Nc2ccc(-c3cnco3)c(OC)c2)c1 [Compound 61] | < 0.01 | 0.1 to 1 | 0.1 to 1 | – | – | –
9 | COc1cc(NC(=O)Nc2cccc(CNC(=O)O[C@@H](CO)CC#N)c2)ccc1-c1cnco1 [Compound 62] | < 0.01 | 0.1 to 1 | 0.1 to 1 | – | – | –
10 | COc1cc(NC(=O)Nc2cccc(CNC(=O)O[C@H](CO)CC#N)c2)ccc1-c1cnco1 [Compound 63] | < 0.01 | 0.1 to 1 | 0.1 to 1 | – | – | –
11 | CCC(CCN1CCOCC1)OC(=O)NCc1cccc(NC(=O)Nc2ccc(-c3cnco3)c(OC)c2)c1 (stereo not drawn) [Compound 65] | < 0.01 | 0.1 to 1 | 0.1 to 1 | – | – | –
12 | CCN(CC)C[C@H](OC(=O)NCc1cccc(NC(=O)Nc2ccc(-c3cnco3)c(OC)c2)c1)c1ccccc1 [Compound 66] | < 0.01 | > 1 | > 1 | – | – | –
13 | CCN(CC)C[C@@H](OC(=O)NCc1cccc(NC(=O)Nc2ccc(-c3cnco3)c(OC)c2)c1)c1ccccc1 [Compound 67] | < 0.01 | 0.1 to 1 | 0.1 to 1 | – | – | –
14 | CC[C@H](CCO)OC(=O)NCc1cccc(NC(=O)Nc2ccc(-c3cnco3)c(OC)c2)c1 [Compound 68] | < 0.01 | – | – | 0.1 to 1 | 0.1 to 1 | –
15 | CC[C@@H](CCO)OC(=O)NCc1cccc(NC(=O)Nc2ccc(-c3cnco3)c(OC)c2)c1 [Compound 69] | < 0.01 | – | – | 0.1 to 1 | 0.1 to 1 | –
16 | COc1cc(NC(=O)Nc2cccc(CNC(=O)OC3COCC3OCC(=O)OC(C)(C)C)c2)ccc1-c1cnco1 (stereo not drawn) [Compound 70] | < 0.01 | – | – | > 1 | > 1 | –
17 | COc1cc(NC(=O)Nc2cccc(CNC(=O)OC3COCC3OCC(=O)O)c2)ccc1-c1cnco1 (stereo not drawn) [Compound 71] | < 0.01 | > 1 | > 1 | – | – | –
18 | COc1cc(NC(=O)Nc2cccc(CNC(=O)OC3COCC3OCC(=O)OC(C)(C)C)c2)ccc1-c1cnco1 (stereo not drawn) [Compound 72] | < 0.01 | – | – | 0.1 to 1 | 0.1 to 1 | –
19 | COc1cc(NC(=O)Nc2cccc(CNC(=O)OC3COCC3OCC(=O)O)c2)ccc1-c1cnco1 (stereo not drawn) [Compound 73] | < 0.01 | – | – | > 1 | > 1 | –
20 | COc1cc(NC(=O)Nc2cccc(CNC(=O)Oc3cccc(/C=C/C(=O)OC(C)(C)C)c3)c2)ccc1-c1cnco1 [Compound 74] | – | > 1 | > 1 | – | – | < 0.01
